Laboratory results as given in patent publication EP0115640A2, “Substituted 4-imidazolyl-pyrazoles, process for their preparation and medicaments containing them” (BAYER AG, priority 1983, dated 1984).

System: Thrombozytenaggregation
Assay: Inhibition of collagen-induced platelet aggregation in platelet-rich plasma (turbidimetric method, aggregometer)
Format: cell-based, Human
Settings: PRP; for Thrombozytenaggregation gehemmt: result in words, collagen-induced; for minimal effective concentration: Homo sapiens, Platelet, 37°C, aggregation triggered with Kollagensuspension, minimal concentration that inhibits aggregation, read-out: Hemmung der Thrombozytenaggregation minimal effektive Konzentration
Text: Thrombozytenaggregationshemmung
Für die Bestimmung der thrombozytenaggregationshemmenden Wirkung wurde Blut von gesunden Spendern, die mindestens 14 Tage lang kein Medikament eingenommen hatten, verwendet. Das Blut wurde in 3,8 %-iger Natriumcitratlösung aufgenommen. Plättchenreiches Plasma (PRP) wurde durch 20 Minuten Zentrifugation bei 150 g und Raumtemperatur gewonnen (Jürgens/Beller: Klinische Methoden der Blutgerinnungsanalyse; Thieme-Verlag Stuttgart 1959). Die Plättchenaggregation wurde nach der turbidometrischen Methode (Born, G.V.R.: J. Physiol. 162, 67 (1962)) im Aggregometer bei 37°C bestimmt. Hierzu wurde PRP mit Prüfsubstanz bei 37°C inkubiert und anschließend die Aggregation durch Zugabe einer Kollagensuspension ausgelöst. Bestimmt wurde die minimale Konzentration einer Prüfsubstanz, die die Thrombozytenaggregation hemmte.
In diesem Test wird die Thrombozytenaggregation insbesondere durch die Verbindungen folgender Herstellungsbeispiele gehemmt: 1, 2, 9 und 15.

For `CC(C)(C)c1n[nH]cc1-n1ccnc1` [Beispiel 1], the Thrombozytenaggregation gehemmt was “gehemmt”.
With `CC(C)(COc1ccc(Cl)cc1Cl)c1n[nH]cc1-n1ccnc1` [Beispiel 9] the Thrombozytenaggregation gehemmt was “gehemmt”.
`Cn1cc(-n2ccnc2)c(C(C)(C)COc2ccc(Cl)cc2)n1` [Beispiel 15] was tested, and the minimal effective concentration was 30 µg/mL and the Thrombozytenaggregation gehemmt was “gehemmt”.
With `Cn1cc(-n2ccnc2)c(C(C)(C)C)n1` [Beispiel 2, 3-tert.-Butyl-1-methyl-4-(imidazol-1-yl)-pyrazol] the Thrombozytenaggregation gehemmt was “gehemmt”.
Compound `c1c[nH]cn1` [Imidazol] has a minimal effective concentration of 30 µg/mL.
